# What was measured:
# NOS2 promoter [1] = test: ESE-1 transactivation of NOS2 promoter luciferase reporter, cotransfection in RAW cells; assay type: cell-based, murine; details: cotransfection with NOS2 promoter
# Procedure: (§1) A 1516 and 265 bp fragment corresponding to nucleotides (−1485 to +31) and (−234 to +31) of the murine NOS2 gene promoter were subcloned into the PGL2 luciferase reporter(Promega).
# (§2) Co-transfections of 2×10^5 RAW cells or RASMCs were carried out with 0.6 μg reporter gene construct DNA and 0.6 μg expression vector DNA using 6 μl lipofectamine (Gibco-BRL) as described (Oettgen, P., et al. 1996. Characterization of NERF, a novel transcription factor related to the Ets factor ELF-1. Mol Cell Biol 16:5091-106). The cells were harvested 16 hours after transfection and assayed for luciferase activity. Transfections for every construct were performed independently in duplicates and repeated 3 times with two different plasmid preparations with similar results. Cotransfection of a second plasmid for determination of transfection efficiency was omitted because potential artifacts with this technique have been reported and because many commonly used viral promoters contain potential binding sites for ets factors (Farr, A., and A. Roman. 1992. A pitfall of using a second plasmid to determine transfection efficiency. Nucleic Acids Res 20:920).
# The ability of ESE-1 DN 1 to block transactivation of the NOS2 promoter was tested in RAW cells. Cotransfection of ESE-1 with the NOS2 promoter led to an approximate 12-fold increase in transactivation. […]
# ICAM-2 promoter = test: Cotransfection of ESE-1 with luciferase reporter constructs of potential target genes; assay type: cell-based; details: cotransfection of expression plasmid with luciferase reporter
# Procedure: as §2
# In an attempt to identify target genes for ESE-1, the ability of ESE-1 to transactivate the promoters of several genes that are induced in response to inflammatory stimuli were tested. […] Transactivation of the ICAM-2 promoter by ESE-1 led to a 3.5 fold induction. […] The NOS2 gene promoter has two important regulatory regions, one that is upstream (−1100 to −800) and one that is in the more proximal promoter (−234 to +31). […]
# COL2A1 promoter [2] = test: COL2A1 promoter luciferase cotransfection in T/C-28a2 cells; assay type: cell-based, human; details: T/C-28a2; pGL3 construct; highest concentrations tested
# Procedure: (§3) The COL2A1 sequence spanning −577 to +3428 bp (Goldring M B, et al, J Cell Biochem 1994;54:85-99, 39) was cloned into the pGL2-basic (pGL2B) luciferase reporter gene vector (Promega,) and named pGL2-COL2/4.0. Deletion constructs containing −577/+125 bp, −131/+125 bp, −87/+125 bp were prepared by enzyme digestion of pGL2-COL2/4.0 using PstI, ApaI, and PuuII, followed by ligation. For the deletion constructs −45/+125 bp, −83/+7 bp, and −45/+7 bp, PCR products were generated as described (Osaki et al.) and cloned into the pGL2-Basic luciferase vector. These reporter constructs were used as templates to generate point mutations or internal deletions by PCR mutagenesis employing the oligonucleotides listed in FIG. 16 and the QuikChange™ Site-Directed Mutagenesis Kit (Stratagene, La Jolla, Calif.). DNA fragments containing point mutations were then cloned into the pGL2B vector and confirmed by DNA sequencing using a G2 primer on pGL2 DNA. Deletions were also made in the −577/+127 bp COL2A1 promoter construct using the ExSite™ PCR-Based Site-Directed Mutagenesis Kit (Stratagene).
# (§4) Transient transfection experiments were carried out in C-28/I2 cells using LipofectAMINE PLUS™ Reagent (Life Technologies). Cells were seeded in 6-well tissue culture plates at 3.5×10^5 cells/well in DMEM/F12 containing 10% FCS 24 h prior to transfection. For each well, 1 μg of COL2A1-luciferase construct, 6 μl of PLUS reagent and 92 μl of serum-free DMEM/F12 were mixed and incubated for 15 min at room temperature. LipofectAMINE+ reagent (4 μl) in 100 μl of serum-free medium was then added to each reaction mixture and incubation was continued for an additional 30 min at room temperature. Finally, the transfection mixture was combined with 800 μl of serum-free medium and the lipid-nucleic acid complex was transferred to the washed cell monolayer in each well. After incubation for 4 h at 37° C., the transfection mix was diluted with an equal volume of DMEM/F12 containing 2% Nutridoma-SP, and incubation continued for 18 h in the absence or presence of IL-1β. For cotransfections, the cells were incubated for 24 h to permit expression of recombinant proteins prior to treatment with IL-1β for a further 18 h. Cell lysates were prepared by extraction with 200 μl of Reporter Lysis Buffer (Promega) and the protein content was determined using the Coomassie Plus Protein Assay Reagent (PIERCE). Luciferase activities were determined by chemiluminescence assay using the Autolumat LB953 luminometer (EG&G Berthold, Oak Ridge, Tenn.), normalized to the amount of protein. Each data point was calculated as the mean±standard deviation for three independently transfected cultures from one representative of at least three experiments. […]
# COX-2 promoter = COX-2 promoter luciferase construct (pXP2/COX-2) in RAW 264.7 cells; assay type: cell-based, human; details: luciferase 16 h
# Procedure: Full-length and dominant-negative mutant ESE-1 cDNAs were inserted into the pCI (Promega) eukaryotic expression vector as described (Oettgen, P., et al. et al. 1997, Mol Cell Biol 17:4419-33). The human COX-2 promoter spanning −170 to +103, kindly provided by Dr. Leslie J. Crofford, University of Michigan, (14) was cloned into the pXP2 luciferase vector (pXP2/COX-2).
# (§5) Cotransfections of 3-8×10^5 cells were carried out with 600 ng reporter gene construct DNA and 200 ng expression vector DNA using LipofectAMINE PLUS (Gibco-BRL) for 16 hours as described (Oettgen, P., et al. et al., 1997, Mol Cell Biol 17:4419-33). Transfections were performed independently in duplicate and repeated 3 to 4 times with different plasmid preparations with similar results.
# We were interested to know which genes that are associated with inflammatory responses are targeted by ESE-1. We focused on the COX-2 gene, an important target for IL-1β, TNF-α, and LPS in inflammation. Furthermore, the COX-2 promoter contains multiple putative Ets binding sites that are potential targets for ESE-1. A COX-2 promoter luciferase construct, pXP2/COX-2, was transfected into RAW 264.7 cells in the absence or presence of the ESE-1 expression vector, pCI/ESE-1. ESE-1 enhanced COX-2 promoter activity more than 10-fold (FIG. 13a). […]
# COL2A1 promoter [3] = test: COL2A1 promoter/intron deletion constructs, transient transfection in C-28/I2 cells; assay type: cell-based, human
# Procedure: as §3
# as §4, with “For cotransfections, the cells were incubated for 24 h to permit expression of recombinant proteins prior to treatment with IL-1β for a further 18 h.” left out
# To localize the responses to IL-1β and ESE-1 in the COL2A1 promoter, we made several 5′-deletions of the −577/+127 bp promoter construct, which we had previously determined to be responsive to IL-1β.
# ESE-1 promoter = ESE-1 promoter luciferase construct (pXP2/ESE-1) transfection; assay type: cell-based, human; details: RAW 264.7 cells; 16 h
# Procedure: as §5
# To investigate the molecular mechanism by which IL-1 β and LPS regulate ESE-1 expression, we examined the response of an ESE-1 promoter luciferase construct after transfection using two cytokine responsive non-epithelial cell types, U-138 MG human glial cells and RAW 264.7 cells, a murine macrophage cell line (Oettgen, P., et al. 1999, Genomics 55:358-62). Whereas the parental pXP2 vector was not stimulated by IL-1β, in U-138 MG cells, IL-1β increased ESE-1 promoter activity up to 5-fold (FIG. 12a). Similarly, LPS enhanced ESE-1 promoter activity ˜9-fold in RAW 264.7 cells (FIG. 12b).
# ESE-1 = ESE-1 mRNA RT-PCR in THP-1 monocytic cells; assay type: cell-based, human; details: THP-1 cells; within one hour
# Procedure: U-87 Mg and U-138 Mg (human glioma), THP-1 (human monocytic), RAW 264.7 (murine monocytic), LB-12 (human osteoblast-like large T antigen transformed bone marrow stromal cells), and human chondrocytes were grown and treated with cytokines as described (Apperley, J., et al. 1990. J Bone Mineral Res. 5:S93; Goldring, M. B., et al. 1994. J Clin Invest 94:2307-16; Goldring, S. R., et al. 1983. J Bone Joint Surg 65:575-84; Libermann, T. A., et al. 1987. Embo J. 6:1627-1632).
# cDNAs were generated from 1 μg of total RNA using Ready-To-Go™ You-prime First-Strand Beads (Amersham Pharmacia Biotech Inc). RT-PCR amplifications of 0.1 μg cDNA were carried out using a MJResearch thermal cycler PTC-100 as follows: 5 min at 94° C., 20-37 cycles of 30 sec at 94° C., 30 sec at 56° C., and 30 sec at 72° C., followed by 5 min at 72° C. (Oettgen, P., et al. 2000, J Biol Chem 275:1216-25). The sequences of the human ESE-1 primers and the primers for human GAPDH were as described (Oettgen, P., et al. 1999, J Biol Chem 274:29439-52).
# Macrophages represent an additional cell type present within RA synovial tissues and are a major target of bacterial endotoxin. We, therefore, examined the effects of lipopolysaccharide (LPS) on ESE-1 expression in monocytes using the human monocytic cell line, THP-1 (FIG. 11e).
# NOS2 promoter [4] = test: LPS (endotoxin) induction of NOS2 promoter luciferase reporter in RAW cells; assay type: cell-based, murine; details: response to endotoxin (LPS)
# Procedure: as §1, §2
# In the presence of LPS, the ESE-1 DN1 protein blocked induction of the NOS2 promoter by LPS by approximately 70-75%. (See FIG. 21C).
Substance,increase in transactivation of the NOS2 promoter (NOS2 promoter [1]) [fold],induction of the ICAM-2 promoter (ICAM-2 promoter) [fold],inhibition of COL2A1/4.0 activity (COL2A1 promoter [2]) [%],induction of COX-2 promoter activity (COX-2 promoter),response of -131/+127 and -83/+127 bp constructs (COL2A1 promoter [3]),"inhibition of -577/+127, -530/+127, -403/+127 bp constructs (COL2A1 promoter [3]; 200 ng, highest amount)",increased expression of pGL2P+2370/+2672 and pGL2B-28/+2122 constructs (COL2A1 promoter [3]; overexpression) [fold],increase in ESE-1 promoter activity (ESE-1 promoter) [fold],ESE-1 expression (ESE-1),increase in NOS2 promoter activity (NOS2 promoter [4]) [fold]
ESE-1: full-length Ets transcription factor ESE-1 overexpressed from the pCI expression vector,~12,3.5,20,more than 10 fold,did not respond,levels of inhibition similar to IL-1β,~10,,,
lipopolysaccharide [LPS],,,,more than 20 fold,,,,~9,induced ESE-1 expression,~14

# — patent US6869929B2, “Use of transcription factors for treating inflammation and other diseases” (Beth Israel Deaconess Medical Center, priority 2000, dated 2005)
